In US7528144B2, “Molecules and methods for fluorescence microscopy” (WiSys Technology Foundation, Inc., priority 2005, dated 2009) one finds resistance to photobleaching data, which are given here for one compound.

This data set deals with THP-1 cells. The experiment in a line: Photobleaching under repeated exposures in cells. In kind it is cell-based. Particulars: 75-200 nM, repeated CCD exposures (FIG. 25). Here is the method:
FIG. 25 depicts (A) InstantLyso LLT-1 at 75 nM in THP-1 cells. Exposures were taken every 30 seconds (with consistent CCD exposure length 7.5 seconds) with blue excitation cube (490 nm maximum).; (B) InstantGolgi McN-1 at 200 nm in THP-1 cells. Exposures were taken with consistent CCD exposure length with purple excitation cube.; (C) InstantLipo Sep-1at 200 nm in THP-1 cells. Exposures were taken with consistent CCD exposure length with purple excitation cube; and (D) Lysotracker Red at 75 nM in THP-1 cells. Exposures were taken every 5 seconds (with consistent CCD exposure length) with green excitation cube. Unretouched, unprocessed images.
The dyes of the present invention hold up well to photobleaching relative to the time needed to take most fluorescence shots (a few seconds).

Turning to `CCCCCCN1C(=O)c2cccc3c(NCCN)ccc(c23)C1=O` [InstantLyso LLT-1, 6-(2-aminoethyl)amino-2-hexyl-1H-benz[de]isoquinoline-1,3-(2H)-dione], the resistance to photobleaching entry is recorded as “holds up much better than the others”.
